In PubChem BioAssay AID977621 (Broad Institute, 2014):
Inconclusive results are not listed. Calls of active or inactive are those of the source.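 The calls were made as follows: active = Wild-type ribosome reporter drop at least double the humanized mutant ribosome reporter drop, growth loss under a set limit; inconclusive = no clear call, values can overlap the other calls; inactive = the rest.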

Assays:
[1] = test system: E. coli H69 humanized mutant ribosome RFP strain growth, fluorescence, 24 h; experiment: wild-type E. coli growth inhibition versus H69 humanized strain – H69 mutant RFP, wild-type GFP, cherry-pick, dose response (AID 977621); conditions: test 2;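 also: wild-type GFP and H69 mutant RFP strains grown together 50/50 in each well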
[2] = test system: E. coli wild-type GFP strain growth, fluorescence, 24 h; experiment: as above
[3] = E. coli mixed culture, 24 h, measured here: total growth OD600, test 2
[4] = measured here: total growth OD600, test 2

Row | SMILES | AC50 [1] [µM] | AC50 [2] | AC50 [2, 3] [µM] | AC50 [2, 4] [µM]
1 | CCOc1ccc(CCNC(=O)CN2C(=O)CCSc3ccccc32)cc1 | > 100 | > 100 µM (inactive) | – | –
2 | COc1cc(OC)nc(Oc2ccccc2C(=O)Oc2ccc(C)cc2)n1 | 51.1 | – | 50.4 | –
3 | O=C(Cn1c(C(=O)NCc2ccco2)cc2sccc21)c1ccccc1 | 47.2 | – | 50 | –
4 | CCOC(=O)CN1C(=O)C(CC)Oc2ccc(Cl)cc21 (configuration not stated) | 5.94 | – | > 100 | –
5 | O=S(=O)(c1ccccc1)N1C[C@@H]2[C@H](c3ccccc31)[C@H](CO)N2Cc1ccccc1 | > 100 | > 100 µM (inactive) | – | –
6 | Cc1noc(C)c1COc1cccc(C(=O)N2CCc3ccccc32)c1 | > 100 | – | > 100 | –
7 | CSc1nc2nc3c(cc2c(=O)n1-c1ccccc1C)CCCC3 | > 100 | – | > 100 | –
8 | O=C(O)CCC(=O)NCc1c(Cl)cccc1Sc1ccc(Cl)cc1 | > 100 | > 100 µM (inactive) | – | –
9 | CN(c1ccccc1)S(=O)(=O)c1cccc(NC(=O)CCN2C(=O)C3CCCCC3C2=O)c1 (configuration not stated) | > 100 | > 100 µM (inactive) | – | –
10 | Cn1c(=O)c2nc(-c3ccccc3)c(-c3ccccc3)nc2n(C)c1=O | 35.6 | > 100 µM (inactive) | 47.9 | –
11 | C[C@]12CCC3C(CC[C@H]4C[C@@H](O)CC[C@]34C)[C@H]1CC[C@H]2O (some centres not stated) | > 100 | – | – | 43.3
12 | COc1ccccc1CNC(=O)CN1C(=O)NC(c2ccccc2)(c2ccccc2)C1=O | 50.3 | – | > 100 | –
13 | COc1ccc(-c2csc3ncn(-c4ccccc4OC)c(=O)c23)cc1OC | > 100 | > 100 µM (inactive) | – | –
14 | O=C(NCc1ccccc1)c1ccc(-c2ccccc2F)o1 | > 100 | – | 36.1 | –
15 | CC(Nc1ncnc2ccccc12)c1ccccc1 (configuration not stated) | > 100 | > 100 µM (inactive) | – | –
16 | CCc1ccn2cc(-c3ccc4c(c3)OCO4)nc2c1 | > 100 | – | > 100 | –
17 | COc1ccc(-c2nc(NC(C)=O)sc2-c2ccccc2)cc1 | 49.1 | – | 44.1 | –
18 | CN1c2ccccc2-c2nc3ccccc3n2C1c1ccncc1 (configuration not stated) | > 100 | > 100 µM (inactive) | > 100 | –
19 | COc1ccccc1NC(=O)CSc1nccn1Cc1ccc(F)cc1 | 30.8 | – | > 100 | –
20 | CCOC(=O)c1ccoc1CN1CCN(S(=O)(=O)c2ccc(C)c(C)c2)CC1 | > 100 | > 100 µM (inactive) | – | –
21 | Cc1nnn(C23CC4CC(CC(CC(=O)Nc5ccc(C)c(C)c5)(C4)C2)C3)n1 | > 100 | > 100 µM (inactive) | – | –

Row | SMILES | AC50 [1] [µM] | AC50 [2] | AC50 [2, 3] [µM] | AC50 [2, 4] [µM]
22 | CCN(c1ccccc1)S(=O)(=O)c1cccc(C(=O)NCC(c2cccs2)N(C)C)c1 (configuration not stated) | > 100 | > 100 µM (inactive) | – | –
23 | C=C(C)Cn1c(=O)c2c(nc3n2CC(C)CN3Cc2ccccc2)n(C)c1=O (configuration not stated) | > 100 | – | > 100 | –
24 | COc1ccc(NC(=O)C2CC3C=CC2C3)c([N+](=O)[O-])c1 (configuration not stated) | > 100 | > 100 µM (inactive) | – | –
25 | O=C(Nc1ccc(Br)cc1)c1cccnc1N1CCCCC1 | > 100 | – | 45.7 | –
26 | COc1ccc(-c2ccccc2)cc1NC(=O)c1ccncc1 | 4.41 | – | > 100 | –
27 | Cc1ccc(S(=O)(=O)Nc2ccccc2CNc2ccccn2)cc1 | 50.6 | > 100 µM (inactive) | 48.9 | –
28 | Cc1ccc(N(CC(O)Cn2nc(C)cc2C)S(=O)(=O)c2ccc3ccccc3c2)cc1 (configuration not stated) | > 100 | > 100 µM (inactive) | 31.5 | –
29 | CCOc1ccccc1N1CCN(C(=O)CCCc2nc3ccccc3s2)CC1 | 43.7 | > 100 µM (inactive) | 37.2 | –
30 | O=c1c2cc(Br)ccc2[nH]c(=S)n1Cc1ccccc1 | > 100 | – | 43.2 | –
31 | COc1ccccc1NS(=O)(=O)c1cc(C(=O)Nc2ccc(S(=O)(=O)Nc3onc(C)c3C)cc2)ccc1C | 4.45 | > 100 µM (inactive) | – | –
32 | CC1CCCN(c2nc(N(C)c3ccccc3)nc(N)c2[N+](=O)[O-])C1 (configuration not stated) | 50.7 | > 100 µM (inactive) | – | –
33 | COc1ccccc1-n1c(Cc2ccccc2)nc2ccccc2c1=O | 47.8 | > 100 µM (inactive) | – | 33
34 | CSc1c(-c2ccccn2)c(N)nn1C(=O)C1CC1 | > 100 | > 100 µM (inactive) | – | –
35 | C(=C(c1ccccc1)c1ccccc1)c1ccccn1 | > 100 | – | > 100 | –
36 | C=C1c2cc3c(cc2NC(=S)N1Cc1ccccc1)OCO3 | > 100 | – | < 0.6 | –
37 | C=C(C)Cn1c(=O)c2c(nc3n2CCCN3Cc2ccccc2)n(C)c1=O | > 100 | > 100 µM (inactive) | – | –
38 | CCN(CC)CCn1c(SCC(=O)Nc2cccc(OC)c2)nc2c(sc3ccccc32)c1=O | > 100 | > 100 µM (inactive) | – | –
39 | Cc1ccc(NC(=O)CN(C)C(=O)Cc2coc3cc(C)c(C)cc23)cc1 | 44 | > 100 µM (inactive) | 42.4 | –
40 | CCn1c2ccccc2c2cc(NC(=O)c3ccco3)ccc21 | > 100 | > 100 µM (inactive) | 40 | –
41 | C=CCn1c(SCC(=O)Nc2ccc3c(c2)OCCO3)nnc1-c1ccco1 | < 0.6 | > 100 µM (inactive) | – | –
42 | Cc1ccn2cc(-c3cccc(NC(=O)c4cccs4)c3)nc2c1 | > 100 | – | > 100 | –

Row | SMILES | AC50 [1] [µM] | AC50 [2] | AC50 [2, 3] [µM] | AC50 [2, 4] [µM]
43 | O=C(CSCc1c(Cl)cccc1Cl)Nc1cccnc1 | 5.01 | > 100 µM (inactive) | > 100 | –
44 | O=C(CSc1nc2scc(-c3ccccc3)c2c(=O)[nH]1)N1CCCCC1 | > 100 | > 100 µM (inactive) | 44.2 | –
45 | O=S1(=O)N[C@H](Cc2ccccc2)COc2cccc(N3CCC[C@H]3CO)c21 | > 100 | – | > 100 | –
46 | CCSc1nc2ccccc2c(=O)n1CCc1ccc(OC)c(OC)c1 | 47.2 | > 100 µM (inactive) | 44.4 | –
47 | COc1ccc(C)cc1NC(=O)c1nn(C)cc1Br | > 100 | > 100 µM (inactive) | 33.9 | –
48 | CCC1=Nc2cc(C(=O)NCc3cccnc3)ccc2Sc2ccc(C)cc21 | > 100 | > 100 µM (inactive) | – | –
49 | CN(CCOc1ccc(CC2SC(=O)NC2=O)cc1)c1ccccn1 (configuration not stated) | > 100 | > 100 µM (inactive) | 40.7 | –
50 | O=S(=O)(NC1CC1)c1ccc(S(=O)(=O)N2CCc3ccccc32)cc1 | 8.03 | – | > 100 | –
51 | COC(=O)C[C@H]1C[C@@H]2c3cc(NC(=O)Nc4ccc(C(F)(F)F)cc4)ccc3O[C@@H]2[C@H](CO)O1 | > 100 | > 100 µM (inactive) | > 100 | –
52 | Cc1cc(NC(=O)CS(=O)(=O)c2cn(Cc3cccc(Br)c3)c3ccccc23)no1 | > 100 | – | 46 | –
53 | CCC1(C(=O)OC)CCc2c(cc(OC)c3ccccc23)C1=O (configuration not stated) | > 100 | – | 42.2 | –
54 | COc1ccccc1-c1noc2ncnc(Nc3cccc(C)c3C)c12 | > 100 | – | – | –
55 | Cc1ccccc1S(=O)(=O)c1cc2ccccc2nc1N | > 100 | – | – | –
56 | COc1ccc(-c2csc(NC(=O)c3ccccc3S(C)(=O)=O)n2)cc1 | > 100 | – | – | –
57 | CCOc1cc(/C=C(\CC(=O)O)c2nc3ccccc3s2)ccc1OC | > 100 | – | – | –
58 | O=C(COC(=O)CCC(=O)c1ccc(F)cc1)NCCc1ccccc1 | > 100 | – | – | –
59 | O=C1c2ccccc2CSc2c(O)cccc21 | 45.9 | – | – | –
60 | CCn1cc(Br)c(C(=O)Nc2ccc(C(=O)OC(C)C)cc2)n1 | 24.1 | > 100 µM (inactive) | – | –
61 | COc1ccc(-c2cn3cc(Cl)ccc3n2)cc1OC | 31.4 | > 100 µM (inactive) | 27.2 | –
62 | CC(C)C[C@H]1COc2cc(Br)ccc2S(=O)(=O)N1 | 5.91 | – | > 100 | –
63 | CCOc1ccc2oc(C(=O)NC3CCN(Cc4ccccc4)CC3)c(C)c2c1 | 1.3 | – | > 100 | –

Row | SMILES | AC50 [1] [µM] | AC50 [2] | AC50 [2, 3] [µM] | AC50 [2, 4] [µM]
64 | O=C(c1ccc(Cl)cc1)C1CCCN(Cc2cccc3cnccc23)C1 (configuration not stated) | > 100 | > 100 µM (inactive) | – | –
65 | NC(=O)c1sc2nnc(-c3ccccc3)c(-c3ccccc3)c2c1N | > 100 | > 100 µM (inactive) | – | –
66 | O=C(CSc1nc2ccccc2n1S(=O)(=O)c1cccc([N+](=O)[O-])c1)NCCc1ccccc1 | > 100 | – | – | –
67 | COC(=O)c1sccc1NC(=O)Cn1nnc(-c2ccccc2C)n1 | 45.1 | – | – | –
68 | Cc1onc(-c2ccccc2Cl)c1C(=O)OCC(=O)c1ccccc1 | 45.6 | – | – | –
69 | O=C(Cc1c(Cl)cccc1Cl)Nc1cccc(S(=O)(=O)N2CCOCC2)c1 | > 100 | > 100 µM (inactive) | 47.3 | –
70 | Cc1cccc(C)c1NC(=O)C1(C)CSCC(=O)N1CCOc1ccccc1 (configuration not stated) | > 100 | – | > 100 | –
71 | O=C(O)CCSc1nc2ccccc2n1-c1ccccc1 | 7.77 | > 100 µM (inactive) | 26.9 | –
72 | COC(=O)c1ccsc1NC(=O)c1cccc(OC)c1 | > 100 | – | > 100 | –
73 | O=S(=O)(NCC1CCCO1)c1ccc(-c2ccc(Cl)cc2)cc1 (configuration not stated) | > 100 | > 100 µM (inactive) | 44.5 | –
74 | CN(C)S(=O)(=O)c1cccc(C(=O)Nc2ccc(C(=O)Nc3cccc(S(N)(=O)=O)c3)cc2)c1 | > 100 | > 100 µM (inactive) | – | –
75 | CCCc1c(C(=O)Nc2ccc(OC)cc2)cnn1-c1ccccc1 | > 100 | > 100 µM (inactive) | 38.1 | –
76 | C[C@H]1CN([C@@H](C)CO)C(=O)CCCn2nncc2CO[C@@H]1CN(C)Cc1ccccc1C(F)(F)F | > 100 | – | – | –
77 | O=C(Nc1nc(-c2ccc3ccccc3c2)cs1)C1CCN(S(=O)(=O)c2cccs2)CC1 | > 100 | – | – | –
78 | O=C(CSCc1cnn(-c2ccccc2)c1-n1cccc1)NCc1cccnc1 | 2.13 | – | – | –
79 | COc1ccc(OC2C(=O)N(Cc3ccc4c(c3)OCO4)C2c2cccs2)cc1 (configuration not stated) | 47.4 | – | – | –
80 | O=S(=O)(c1cccc(-c2nc3ccccc3s2)c1)N1CCCC1 | > 100 | – | – | –
81 | O=C(NCCc1csc(-c2ccccc2)n1)c1ccccc1F | 49 | – | – | –
82 | Fc1ccc(-c2nc3ccc(Cl)cn3c2Cc2cccc(Cl)c2)cc1 | > 100 | – | – | –
